Data: patent publication US20040023362A1, “Degradation of polycyclic aromatic hydrocarbons by microorganisms” (priority 2000, published 2004)
“Also recorded” adds a separate entry of the source.

Tests used:
[1] = tested on: strain VUN 10,010; experiment: Agar (well) diffusion toxicity test of surfactants; type: cell-based, Stenotrophomonas maltophilia
Experimental: The agar diffusion method was used to determine the effects of surfactants on growth by observing zones of inhibition on peptone-glucose agar (Cserhali et al, 1991). The medium contained per litre: 5 g peptone, 5 g glucose, 0.5 g NaCl, 3 g beef extract, 20 g agar; the pH was adjusted to 7.0 and sterilized by autoclaving for 15 min at 121° C. Bacterial cultures were mixed with the molten medium (25 ml) to obtain an inoculum size of approximately 10^8 cells ml^−1, and this was poured into a Petri dish. Once the cell-medium mixture had solidified, 7 mm diameter holes were made, and 150 μl of aqueous surfactant solutions was added (0.1-10.0 g l^−1). Growth inhibition zones were observed after 48-72 h at 30° C.

[2] = physchem
Experimental: PAHs (approximately 1 g l^−1) were added to a 10 ml solution of BSM plus surfactant in a 30 ml glass reaction vial, which was sealed with an aluminium cap fitted with a septum. Surfactant concentrations corresponded to levels above, below, and at the CMC, and replicates were set up to allow sampling in duplicate at different time intervals up to 72 h. Incubation was performed at 30° C. and 175 rpm. The entire vial contents was collected by syringe and expressed through a preconditioned membrane filter (0.22 μm, Sartorius AG, Germany) to remove solid-phase crystalline PAH while allowing solubilized PAH in the aqueous phase and micellar pseudophase to pass into sterile vials. The filter was preconditioned by purging the filter with a few mls of sample solution to allow sorption saturation of the internal surfaces of the syringe, filter and needle. The filtrates were extracted with dichloromethane (DCM), and the concentration of solubilized PAH was determined by GC-FID as described below.
The effectiveness of a particular surfactant in solubilizing a given PAH can be assessed by determining the molar solubilization ratio (MSR) and micelle/water partition coefficient (Km). In our study, the concentrations of added PAHs were well in excess of aqueous saturation concentrations; therefore the MSR value of each compound can be obtained from the slope of the curve generated from a plot of PAH concentration versus surfactant concentration for surfactant concentrations above CMC (Edwards et al, 1991).
Km values can be determined from the measured MSR values according to the following equation (Edwards et al, 1991): [formula]
^SPAH, CMC is the apparent solubility of the PAH (mol l^−1) at surfactant CMC. VW is the molar volume of water at 30° C. ie. 0.018015 l mol^−1(Rogers and Mayhew, 1981).

[3] = data from the manufacturers; cited from earlier work
[4] = tested on: S. maltophilia VUN 10,010; experiment: Pyrene degradation and growth of VUN 10,010 in the presence of surfactants; type: cell-based, Stenotrophomonas maltophilia; settings: for effect on growth of VUN 10,010 on pyrene (protein analysis, MPN): surfactant 5-10 g l^−1; for effect on pyrene degradation by VUN 10,010: surfactant 5-10 g l^−1 (up to 10 g l^−1)
Experimental: Each surfactant was added to the medium to achieve the following concentrations: 0.5 g l^−1 (▴), 5.0 g l^−1 (●) and 10.0 g l^−1 (▪). The control cultures ( ) contained no added surfactant. The incubations were performed in BSM at 30° C., using low initial cell populations.
Growth was monitored by measuring protein concentration and viable cell numbers at regular intervals up to 10 days. Viable cell numbers were determined by most probable number (MPN) estimates (Collin et al, 1989).
Three types of controls were used: cultures containing no surfactant, uninoculated broth, and killed cell cultures (0.2% HgCl2). All cultures were incubated at 30° C./175 rpm. Bacterial growth was determined by MPN estimates.

[5] = Surfactant critical micelle concentration, duNouy ring tensitometer; type: physicochemical; settings: for CMC in BSM compared with deionized (distilled) water: 30° C.; for CMC: in BSM
Experimental: Experiments to evaluate surfactant CMC values were conducted at 30° C. using a duNouy ring tensitometer (Cambridge Instrument Company Limited, London, England). All glassware was cleaned with chromic acid solution, and the tensitometer ring was cleaned with acetone and heated to redness in a gas flame. Various concentrations of surfactant solutions were prepared in deionized water and BSM. Surfactant solutions were allowed to equilibrate for approximately 2 h before measurements were made. Measurements were an average of five readings (SD<0.3%). CMC value was taken from the plot of surface tension versus log surfactant concentration, as described by Kile and Chiou (1989).

[6] = Ghosh et al (1995); medium and temperature not specified; cited from earlier work

Compound | inhibitory concentration in well diffusion toxicity test ([1]; peptone-glucose agar, 30° C.) [g/L] | MIC ([1]; peptone-glucose agar, 30° C.) [µg/mL] | MSR (molar solubilization ratio), PYR [2] | log Km (micelle-phase/aqueous-phase partition coefficient), PYR [2] | effect on microbial growth ([1]; concentrations of 5 and 10 g l^−1) | HLB (hydrophile-lipophile balance number) [3] | effect on growth of VUN 10,010 on pyrene (protein analysis, MPN) [4] | effect on pyrene degradation by VUN 10,010 [4] | CMC in BSM compared with deionized (distilled) water [5] | CMC [5] [mM] | MSR for benzo[a]pyrene [6] | MSR (molar solubilization ratio), BAP [2] | MSR (molar solubilization ratio), FA [2] | log Km (micelle-phase/aqueous-phase partition coefficient), BAP [2] | log Km (micelle-phase/aqueous-phase partition coefficient), FA [2] | reduction of time required for VUN 10,010 to degrade 250 mg l^−1 of pyrene ([4]; surfactant 5-10 g l^−1, presolubilized pyrene) [%]
CCCCCCCCCCCCCCCC[N+](C)(C)C.[Br-] [CTAB] | 0.01 to 0.05 |  |  |  |  |  |  |  |  |  |  |  |  |  |  | 
CCCCCCCCCCCCOS(=O)(=O)[O-].[Na+] [SDS] |  | 200 |  |  |  |  |  |  |  |  |  |  |  |  |  | 
Igepal CA-630 |  |  | 0.0326 | 5.39 | some inhibition | 13.0 | inhibited | inhibited pyrene degradation; also recorded: inhibitory to pyrene degradation | higher CMC values in BSM | 0.1078 |  |  |  |  |  | 
Triton X-100 |  |  | 0.0352 | 5.84 |  | 13.5 |  | enhanced | higher CMC values in distilled water | 0.2320 | 1.5×10^−2 | 0.0113 | 0.0508 | 7.49 | 5.64 | 
Tyloxapol |  |  | 0.0820 | 6.60 |  | 12.9 | significantly improved | enhanced | higher CMC values in distilled water | 0.0167 |  |  |  |  |  | 50
